Active and inactive are the calls of the source. No rule for the calls is given here.
Test system: CCRIS mutagenicity, Ames/micronucleus/aberration tests
Assay: CCRIS mutagenicity studies
[1] = Test System: AMES SALMONELLA TYPHIMURIUM, Strain/Indicator: TA100, Metabolic Activation: NONE, Method: STANDARD PLATE

**Q.** With `CC[n+]1c(-c2ccccc2)c2cc(N)ccc2c2ccc(N)cc21` as the molecule, how does the mutagenic call (End Point: IN VITRO MICRONUCLEUS, Test System: CHO CELLS, Metabolic Activation: RAT, LIVER, S-9, AROCLOR 1254) read?
**A.** inactive; negative

**Q.** And the mutagenic call (Test System: AMES SALMONELLA TYPHIMURIUM, Strain/Indicator: TA97A, Metabolic Activation: NONE, Method: STANDARD PLATE)?
**A.** inactive; negative

**Q.** What about the mutagenic call (Test System: AMES SALMONELLA TYPHIMURIUM, Strain/Indicator: TA97A, Metabolic Activation: RAT LIVER S-9, AROCLOR 1254, Method: STANDARD PLATE) of the same molecule?
**A.** active; positive

**Q.** And the mutagenic call (Test System: AMES SALMONELLA TYPHIMURIUM, Strain/Indicator: TA98, Metabolic Activation: NONE, Method: STANDARD PLATE)?
**A.** inactive; negative

**Q.** What about the mutagenic call (Test System: AMES SALMONELLA TYPHIMURIUM, Strain/Indicator: TA98, Metabolic Activation: RAT LIVER S-9, AROCLOR 1254, Method: STANDARD PLATE) of the same molecule?
**A.** active; positive

**Q.** And the mutagenic call (Test System: AMES SALMONELLA TYPHIMURIUM, Strain/Indicator: TA98, Metabolic Activation: RAT, LIVER, S-9, AROCLOR 1254, HAMSTER, LIVER, S-9, AROCLOR 1254, Method: STANDARD PLATE)?
**A.** active; positive

**Q.** And the mutagenic call (Test System: AMES SALMONELLA TYPHIMURIUM, Strain/Indicator: TA98, Metabolic Activation: RAT, LIVER, S-9, AROCLOR 1254, Method: STANDARD PLATE)?
**A.** active; positive

**Q.** What about the mutagenic call (Test System: AMES SALMONELLA TYPHIMURIUM, Strain/Indicator: TA98, Metabolic Activation: RAT, LIVER, S-9, AROCLOR 1254 OR PHENOBARBITOL, Method: STANDARD PLATE) of the same molecule?
**A.** active; positive

**Q.** What about the mutagenic call [1] of the same molecule?
**A.** inactive; negative

**Q.** What about the mutagenic call (Test System: AMES SALMONELLA TYPHIMURIUM, Strain/Indicator: TA100, Metabolic Activation: RAT LIVER S-9, AROCLOR 1254, Method: STANDARD PLATE) of the same molecule?
**A.** inactive; negative

**Q.** And the mutagenic call (Test System: AMES SALMONELLA TYPHIMURIUM, Strain/Indicator: TA100, Metabolic Activation: RAT, LIVER, S-9, AROCLOR 1254 OR PHENOBARBITOL, Method: STANDARD PLATE)?
**A.** inactive; negative

**Q.** And the mutagenic call (Test System: AMES SALMONELLA TYPHIMURIUM, Strain/Indicator: TA102, Metabolic Activation: NONE, Method: STANDARD PLATE)?
**A.** inactive; negative

**Q.** And the mutagenic call (Test System: AMES SALMONELLA TYPHIMURIUM, Strain/Indicator: TA102, Metabolic Activation: RAT LIVER S-9, AROCLOR 1254, Method: STANDARD PLATE)?
**A.** active; positive

**Q.** What about the mutagenic call (Test System: AMES SALMONELLA TYPHIMURIUM, Strain/Indicator: TA1535, Metabolic Activation: NONE, Method: STANDARD PLATE) of the same molecule?
**A.** inactive; negative

**Q.** What about the mutagenic call (Test System: AMES SALMONELLA TYPHIMURIUM, Strain/Indicator: TA1535, Metabolic Activation: RAT LIVER S-9, AROCLOR 1254, Method: STANDARD PLATE) of the same molecule?
**A.** inactive; negative

**Q.** And the mutagenic call (Test System: AMES SALMONELLA TYPHIMURIUM, Strain/Indicator: TA1535, Metabolic Activation: RAT, LIVER, S-9, AROCLOR 1254 OR PHENOBARBITOL, Method: STANDARD PLATE)?
**A.** inactive; negative

**Q.** What about the mutagenic call (Test System: AMES SALMONELLA TYPHIMURIUM, Strain/Indicator: TA1537, Metabolic Activation: NONE, Method: STANDARD PLATE) of the same molecule?
**A.** inactive; negative

**Q.** What about the mutagenic call (Test System: AMES SALMONELLA TYPHIMURIUM, Strain/Indicator: TA1537, Metabolic Activation: RAT LIVER S-9, AROCLOR 1254, Method: STANDARD PLATE) of the same molecule?
**A.** active; positive

**Q.** What about the mutagenic call (Test System: AMES SALMONELLA TYPHIMURIUM, Strain/Indicator: TA1537, Metabolic Activation: RAT, LIVER, S-9, AROCLOR 1254, HAMSTER, LIVER, S-9, AROCLOR 1254 (2.5-20%), Method: STANDARD PLATE) of the same molecule?
**A.** active; positive

**Q.** What about the mutagenic call (Test System: AMES SALMONELLA TYPHIMURIUM, Strain/Indicator: TA1537, Metabolic Activation: RAT, LIVER, S-9, AROCLOR 1254, HAMSTER, LIVER, S-9, AROCLOR 1254, Method: STANDARD PLATE) of the same molecule?
**A.** active; positive

**Q.** And the mutagenic call (Test System: AMES SALMONELLA TYPHIMURIUM, Strain/Indicator: TA1537, Metabolic Activation: RAT, LIVER, S-9, AROCLOR 1254 OR PHENOBARBITOL, Method: STANDARD PLATE)?
**A.** active; positive

**Q.** And the mutagenic call (Test System: AMES SALMONELLA TYPHIMURIUM, Strain/Indicator: TA1538, Metabolic Activation: NONE, Method: STANDARD PLATE)?
**A.** inactive; negative

**Q.** And the mutagenic call (Test System: AMES SALMONELLA TYPHIMURIUM, Strain/Indicator: TA1538, Metabolic Activation: RAT LIVER S-9, AROCLOR 1254, Method: STANDARD PLATE)?
**A.** active; positive

**Q.** What about the mutagenic call (Test System: AMES SALMONELLA TYPHIMURIUM, Strain/Indicator: TA1538, Metabolic Activation: RAT, LIVER, S-9, AROCLOR 1254, HAMSTER, LIVER, S-9, AROCLOR 1254, Method: STANDARD PLATE) of the same molecule?
**A.** active; positive

**Q.** What about the mutagenic call (Test System: AMES SALMONELLA TYPHIMURIUM, Strain/Indicator: TA1538, Metabolic Activation: RAT, LIVER, S-9, AROCLOR 1254, Method: STANDARD PLATE) of the same molecule?
**A.** active; positive

**Q.** What about the mutagenic call (Test System: AMES SALMONELLA TYPHIMURIUM, Strain/Indicator: TA1538, Metabolic Activation: RAT, LIVER, S-9, AROCLOR 1254 OR PHENOBARBITOL, Method: STANDARD PLATE) of the same molecule?
**A.** active; positive

**Q.** What about the mutagenic call (Test System: CHINESE HAMSTER OVARY, Strain/Indicator: CHO-K1-BH4 (HGPRT)/6-THIOGUANINE, Metabolic Activation: NONE, Method: SUSPENSION/PLATE) of the same molecule?
**A.** inactive; negative

**Q.** And the mutagenic call (Test System: CHINESE HAMSTER OVARY, Strain/Indicator: CHO-K1-BH4 (HGPRT)/6-THIOGUANINE, Metabolic Activation: S-9, Method: SUSPENSION/PLATE)?
**A.** inactive; negative

**Q.** And the mutagenic call (Test System: CHINESE HAMSTER OVARY, Strain/Indicator: CHO-K1-BH4 (HGPRT), Metabolic Activation: NONE, Method: SUSPENSION/PLATE)?
**A.** inactive; negative

**Q.** What about the mutagenic call (Test System: CHINESE HAMSTER OVARY, Strain/Indicator: CHO-K1-BH4 (HGPRT), Metabolic Activation: RAT, LIVER, S-9, AROCLOR, Method: SUSPENSION/PLATE) of the same molecule?
**A.** inactive; negative

**Q.** What about the mutagenic call (Test System: CHINESE HAMSTER V-79, Strain/Indicator: V-79/6-THIOGUANINE, Metabolic Activation: NONE, Method: FLASK ASSAY) of the same molecule?
**A.** inactive; negative

**Q.** What about the mutagenic call (Test System: E. COLI, Strain/Indicator: WP2, Metabolic Activation: NONE, Method: PREINCUBATION) of the same molecule?
**A.** inactive; negative

**Q.** What about the mutagenic call (Test System: E. COLI, Strain/Indicator: WP2 UVRA, Metabolic Activation: NONE, Method: PREINCUBATION) of the same molecule?
**A.** inactive; negative

**Q.** What about the mutagenic call (Test System: MOUSE LYMPHOMA, Strain/Indicator: L5178Y (TK+/TK-), Metabolic Activation: RAT, LIVER, S-9, AROCLOR 1254, Method: SUSPENSION/PLATE) of the same molecule?
**A.** active; positive. reevaluation of results: positive

**Q.** What about the mutagenic call (Test System: MOUSE LYMPHOMA, Strain/Indicator: L5178Y (TK+/TK-), Metabolic Activation: S-9, Method: SUSPENSION/PLATE) of the same molecule?
**A.** inactive; negative

**Q.** `O=C[C@H](O)[C@@H](O)[C@H](O)CO` was tested. Which mutagenic call (Test System: AMES SALMONELLA TYPHIMURIUM, Strain/Indicator: TA97A, Metabolic Activation: NONE, Method: PREINCUBATION) did it give?
**A.** inactive; negative

**Q.** And the mutagenic call (Test System: AMES SALMONELLA TYPHIMURIUM, Strain/Indicator: TA97A, Metabolic Activation: RAT, LIVER, S-9, AROCLOR 1254, Method: PREINCUBATION)?
**A.** inactive; negative

**Q.** What about the mutagenic call (Test System: AMES SALMONELLA TYPHIMURIUM, Strain/Indicator: TA102, Metabolic Activation: NONE, Method: PREINCUBATION) of the same molecule?
**A.** inactive; negative

**Q.** What about the mutagenic call (Test System: AMES SALMONELLA TYPHIMURIUM, Strain/Indicator: TA102, Metabolic Activation: RAT, LIVER, S-9, AROCLOR 1254, Method: PREINCUBATION) of the same molecule?
**A.** inactive; negative

**Q.** How did the mutagenic call (End Point: In vitro micronucleus, Test System: V79MZ Chinese hamster fibroblasts, Metabolic Activation: None) turn out when `c1ccc2c(c1)cc1ccc3cccc4c5ccccc5c2c1c34` was run?
**A.** inactive; negative

**Q.** And the mutagenic call (End Point: In vitro micronucleus, Test System: V79MZ-h1A1 Chinese hamster fibroblasts (expressing human CYP1A1), Metabolic Activation: None)?
**A.** active; positive

**Q.** What about the mutagenic call (End Point: In vitro micronucleus, Test System: V79MZ-h1B1 Chinese hamster fibroblasts (expressing human CYP1B1), Metabolic Activation: None) of the same molecule?
**A.** active; positive

**Q.** And the mutagenic call (Test System: AMES SALMONELLA TYPHIMURIUM, Strain/Indicator: TA98, Metabolic Activation: RAT, LIVER, S-9, AROCLOR 1254, Method: PREINCUBATION)?
**A.** active; positive

**Q.** And the mutagenic call (Test System: AMES SALMONELLA TYPHIMURIUM, Strain/Indicator: TA100, Metabolic Activation: RAT, LIVER, S-9, AROCLOR 1254, Method: PREINCUBATION)?
**A.** active; positive

**Q.** What about the mutagenic call (Test System: CHINESE HAMSTER V-79, Strain/Indicator: V-79 (HPRT)/6-THIOGUANINE, Metabolic Activation: HUMAN MAMMARY CARCINOMA MCF-7 CELLS) of the same molecule?
**A.** active; positive

**Q.** How did the mutagenic call [1] turn out when `Cc1ccc(S(=O)(=O)OCc2ccccc2)cc1` was run?
**A.** inactive; negative
